# From patent US20110178117A1 (Merck Sharp & Dohme Corp., priority 2008, published 2011)
# Molecular target: T1, recombinant human mGluR2 (Homo sapiens, UniProt Q14416)
# T1 construct: expressed in transfected cells
# Assay: FLIPR Ca2+ mobilization assay, potentiation of glutamate response
# Type: cell-based
# Conditions: CHO dhfr- cells expressing human mGluR2 and Gα16; potentiation after EC20 glutamate (900 nM); read-out: Representative FLIPR EC50 Values: EC50
# Method: The compounds of the present invention may be tested in a fluorescence laser imaging plate reader (FLIPR) based assay. This assay is a common functional assay to monitor Ca^2+ mobilization in whole cells expressing recombinant receptor coupled with a promiscuous G-protein. CHO dhfr-cells stably expressing recombinant human mGluR2 and Gα16 loaded with Fluo-4 AM (Invitrogen, Carlsbad Calif.) are treated with dose responses of compounds and the Ca^2+ response is monitored on a FLIPR384 (Molecular Devices, Sunnydale Calif.) for agonist activity. The potentiation response is monitored after a subsequent addition of an EC20 concentration of glutamate (900 nM). The maximum calcium response at each concentration of compound for agonist or potentiation are plotted as dose responses and the curves are fitted with a four parameters logistic equation giving EC50 and Hill coefficient using the iterative non linear curve fitting software program.
# T1 sequence (Q14416 19-872): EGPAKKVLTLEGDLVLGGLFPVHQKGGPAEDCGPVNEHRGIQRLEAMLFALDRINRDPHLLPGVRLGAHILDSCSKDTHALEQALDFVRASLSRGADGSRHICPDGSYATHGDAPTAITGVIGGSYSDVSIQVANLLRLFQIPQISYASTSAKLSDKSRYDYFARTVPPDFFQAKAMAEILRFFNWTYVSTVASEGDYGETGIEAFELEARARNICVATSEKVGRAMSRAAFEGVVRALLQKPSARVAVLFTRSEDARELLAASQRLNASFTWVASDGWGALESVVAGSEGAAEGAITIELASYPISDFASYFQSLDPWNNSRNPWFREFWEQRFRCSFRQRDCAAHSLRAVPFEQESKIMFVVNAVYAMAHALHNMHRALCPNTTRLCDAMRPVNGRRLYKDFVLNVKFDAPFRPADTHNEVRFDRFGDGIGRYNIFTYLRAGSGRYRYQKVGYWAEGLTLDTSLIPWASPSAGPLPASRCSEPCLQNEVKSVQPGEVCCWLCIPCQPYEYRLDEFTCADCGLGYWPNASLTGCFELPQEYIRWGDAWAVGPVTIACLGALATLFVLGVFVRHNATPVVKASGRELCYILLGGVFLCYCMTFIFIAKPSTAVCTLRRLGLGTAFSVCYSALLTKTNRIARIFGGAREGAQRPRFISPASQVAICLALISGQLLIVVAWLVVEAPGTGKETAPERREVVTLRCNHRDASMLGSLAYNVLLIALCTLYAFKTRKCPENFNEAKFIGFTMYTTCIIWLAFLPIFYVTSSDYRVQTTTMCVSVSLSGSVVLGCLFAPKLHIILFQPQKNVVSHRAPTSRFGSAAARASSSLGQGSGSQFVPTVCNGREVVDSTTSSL
row,Compound,EC50
1,"COCCCCC1Cn2c(nc3ccccc32)O1 (centres unmarked) [Example 1-21, 2-(4-methoxybutyl)-2,3-dihydrobenzo[d]oxazolo[3,2-a]imidazole]",3120 nM
2,"c1ccc2c(c1)nc1n2CC(CC2CCCCC2)O1 (centres unmarked) [Example 3-5, 2-(cyclohexylmethyl)-2,3-dihydro[1,3]oxazolo[3,2-a]benzimidazole]",2140 nM
3,"CCCCCCC1(C)Cn2c(nc3ccccc32)O1 (centres unmarked) [Example 4-2, 2-hexyl-2-methyl-2,3-dihydro[1,3]oxazolo[3,2-a]benzimidazole]",622 nM
4,CCCCCCC1(CC)Cn2c(nc3ccccc32)O1 (centres unmarked) [Example 4-3],2290 nM
5,"(R)-2-(6-fluorohexyl)-2,3-dihydrobenzo oxazolo[3,2-a]imidazole-7-carbonitrile [Example 1-31]",68 nM

# The remaining compounds from weak to strong by EC50, led by results:
row,EC50,Compound
1,378 nM,"CC(C)(C)OC(=O)N1CCCC(C2Cn3c(nc4ccccc43)O2)C1 (centres unmarked) [Example 3-7, tert-butyl 3-(2,3-dihydro[1,3]oxazolo[3,2-a]benzimidazole-2-yl)piperidine-1-carboxylate]"
2,21 nM,"CCCCCC[C@@H]1Cn2c(nc3ccccc32)O1 [Example 1-5, (2R)-2-hexyl-2,3-dihydro[1,3]oxazolo[3,2-a]benzimidazole]"
3,11 nM,"CCCCCC[C@@H]1Cn2c(nc3cc(C#N)ccc32)O1 [Example 1-19, (2R)-2-hexyl-2,3-dihydro[1,3]oxazolo[3,2-a]benzimidazole-7-carbonitrile]"
